{"source": "patent US20030044413A1", "about": "“Methods of limiting apoptosis of cells” (Regents of the University of Minnesota, priority 1998, published 2003)", "key": {"Hep G2 cells": {"system": "Hep G2 cells", "test": "FACS analysis of ΔΨm and ROS, Hep G2 cells", "format": "cell-based", "protocol": "(§1) A ΔΨm and ROS measurement. ΔΨm and ROS production were measured by FACScan (Becton Dickinson) analysis. Freshly isolated rat hepatocytes were cultured for 3 h as described above and then incubated with William's E medium supplemented with either 100 μM DCA, 100 μM UDCA, equal molar amounts of both, or no bile acid (control), for 6 h. Rat hepatocytes were also cultured with either 1% ethanol, 100 μM UDCA, ethanol+UDCA, or no addition (control) for 4 h. HuH-7 cells, Hep G2 cells, and human osteogenic sarcoma Saos-2 cells were incubated with TGF-β1, anti-Fas antibody or okadaic acid, respectively, for 48 h under the same conditions as outlined above. For combination studies, cells were pretreated with UDCA or hyodeoxycholic acid for 60 min prior to addition of DCA, ethanol, TGF-β1, anti-Fas antibody or okadaic acid. Aliquots of 1.0×10^6 cells were incubated for 15 min at 37° C. with 50 nM 3,3′-dihexyloxacarbocyanine iodide [DiOC6(3)], 2 μM dihydroethidium (HE), or 5 μM 2′,7′-dichlorofluorescin diacetate (H2DCFDA; Molecular Probes, Inc. Eugene, Oreg.) and analyzed by cytofluorometry (Cathcart et al., Anal. Biochem., 134, 111-116 (1983); Zamzami et al., J. Exp. Med., 181, 1661-1672 (1 995); Carter et al., J. Leukocyte Biol., 55, 253-258 (1994)).\nRat primary hepatocytes were incubated with 100 μM DCA and 1% ETOH for 6 h and 4 h, respectively; HuH-7 cells with 1 nM TGF-β1 for 48 h; Hep G2 cells with 0.5 μg/ml anti-Fas antibody (CH-11) for 48 h, and Saos-2 cells with 50 nM okadaic acid (OA) for 48 h. In each combination group, cells were pretreated with 100 μM UDCA alone for 60 min prior to addition of the inducer. Aliquots of 1.0×10^6 cells were incubated for 15 min at 37° C. with 5 μM 2′,7′-dichlorofluorescin diacetate (H2DCFDA) and analyzed by cytofluorometry."}, "[1]": {"test": "Nuclear bile acid concentration in livers of fed rats", "format": "in vivo, rat"}, "primary rat hepatocytes": {"system": "primary rat hepatocytes", "test": "Ethanol-induced apoptosis, Hoechst staining, primary rat hepatocytes", "format": "cell-based", "protocol": "Incubation of cells with ethanol, TGF-β1, anti-Fas antibody or okadaic acid. Freshly isolated rat hepatocytes were cultured for 3 h as described above and then incubated with William's E medium supplemented with either 0.5% ethanol, 50 μM UDCA, ethanol plus UDCA, or no addition (control) for 2 h and 4 h. HuH-7 cells were incubated with Dulbecco's medium supplemented with either 1 nM TGF-β1 (R & D Systems, Minneapolis, Minn.), 100 μM UDCA, TGF-β1+UDCA, or no addition (control) for 24 h, 48 h, and 72 h. Hep G2 cells were incubated with Dulbecco's medium supplemented with either 0.5 μg/ml of anti-Fas antibody CH-11 (Upstate Biotechnology, Inc., Lake Placid, N.Y.), 100 μM UDCA, CH-11+UDCA, or no addition for 48 h. Both HuH-7 cells and human osteogenic sarcoma Saos-2 cells were cultured in Dulbecco's medium supplemented with either 50 nM okadaic acid (Boehringer Mannheim Biochemicals, Inc, Indianapolis, Ind.), 100 μM UDCA, okadaic acid+UDCA, or no addition for 48 h. In all the combination groups, cells were pretreated with UDCA alone for 60 min prior to addition of ethanol, TGF-β1, anti-Fas antibody or okadaic acid.\nMorphological evaluation of apoptosis. Morphology was performed as described previously (Oberhammer et al., Proc. Natl. Acad. Sci. USA 89, 5408-5412 (1992)). Briefly, after fixation (with 4% formaldehyde in PBS, pH 7.4, for 10 min at room temperature), the cells were incubated with Hoechst dye 33258 (Sigma Chemical Co.) at 5 μg/ml in PBS for 5 min, washed with PBS and mounted with PBS:glycerol (3:1, v/v). Fluorescence was visualized with a Zeiss standard fluorescence microscope (Carl Zeiss, Inc., Thornwood, N.Y.). Photographs were taken with Kodak Ektar-1000 film (Eastman Kodak Co.). Stained nuclei were scored by blind analysis and categorized according to the condensation and staining characteristics of chromatin. Normal nuclei were identified as noncondensed chromatin dispersed over the entire nucleus. Apoptotic nuclei were identified by condensed chromatin, contiguous to the nuclear membrane, as well as nuclear fragmentation of condensed chromatin. Three fields per dish of approximately 500 nuclei were counted; mean values are expressed as the percent of apoptotic nuclei."}, "[2]": {"system": "hepatocytes, HuH-7, Hep G2 and Saos-2 cells", "test": "FACS analysis of ΔΨm and ROS, summary over all cell types", "format": "cell-based", "details": "coadministration of UDCA with the inducers, range over cell types", "protocol": "as §1"}, "[3]": {"details": "inducer CH-11, Hep G2, inhibition by UDCA"}}}
{"smiles": "C[C@H](CCC(=O)O)[C@H]1CC[C@H]2[C@@H]3[C@@H](O)C[C@@H]4C[C@H](O)CC[C@]4(C)[C@H]3CC[C@]12C", "note": "[UDCA, ursodeoxycholic acid]", "values": [{"measurement": "Peroxides Production (%) Inducer + UDCA", "setting": "Hep G2 cells; 0.5 μg/ml CH-11 48 h, 100 μM UDCA pretreatment 60 min", "value": "6.2 ± 1.3", "unit": "%"}, {"measurement": "inhibition at 100 µM", "setting": "Hep G2 cells; Homo sapiens, HepG2, inducer CH-11, Hep G2, 100 μM UDCA, read-out: % Inhibition of peroxides production", "value": "52.2 ± 14.9", "unit": "%"}, {"measurement": "Inhibition % Superoxide Anion", "setting": "Hep G2 cells; [3]", "value": "55.1 ± 10.8", "unit": "%"}, {"measurement": "Inhibition % _Ψm", "setting": "Hep G2 cells; [3]", "value": "63.1 ± 11.9", "unit": "%"}, {"measurement": "share of the total nuclear bile acid concentration", "setting": "[1]; UDCA feeding", "value": 91.4, "unit": "%"}, {"measurement": "concentration in nuclei relative to cytoplasmic levels", "setting": "[1]; livers from control and DCA fed rats", "value": "> 20", "unit": "fold"}, {"measurement": "cell viability", "setting": "primary rat hepatocytes; 0.5% ethanol + 50 μM UDCA", "value": "79.5±7.9", "unit": "%"}, {"measurement": "Inhibition % Apoptosis", "setting": "primary rat hepatocytes; inducer ETOH, hepatocytes, inhibition by UDCA", "value": "75.9 ± 13.8", "unit": "%"}, {"measurement": "decrease in superoxide anion production", "setting": "[2]", "value": "55-93%"}, {"measurement": "inhibition of increase in other ROS", "setting": "[2]", "value": "39-65%"}, {"measurement": "inhibition of ΔΨm disruption", "setting": "[2]", "value": "21-63%"}]}
